Assays:
B. subtilis 168 [1] = test: fitness (endpoint OD595 vs no drug) (fraction); higher = more growth
Summary of the method: (§1)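 Fitness is computed from the optical density at which cultures reach stationary phase, divided by the robust mean of no-drug control wells. Any value above 1 is set to 1. Cultures started at OD595 0.01 in 384-well plates with TSB, LB Lennox or CY at 37 °C, and OD595 was read every 30 min for 14 h against a first-reading background.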

S. aureus DSM 20231 [2] = test: as above
Summary of the method: as §1

S. aureus Newman [3] = test: as above
Summary of the method: as §1

S. pneumoniae D39V [4] = test: as above
Summary of the method: as §1

B. subtilis 168 [5] = test: Bliss interaction score (quartile over a dose matrix) (fitness difference); higher = more antagonism (negative = synergy)
Summary of the method: (§2)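 Values were capped at 1 after dividing OD595 at stationary-phase entry by the plate's robust no-drug mean. This ratio is fitness, and single-drug fitness was inferred from the combination data. The Bliss score is observed minus product-expected fitness, given as quartiles over technical, biological and donor/recipient replicates.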

S. aureus DSM 20231 [6] = test: as above
Summary of the method: as §2

S. aureus Newman [7] = test: as above
Summary of the method: as §2

S. pneumoniae D39V [8] = test: as above
Summary of the method: as §2
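Wherever Bliss interaction score (quartile over a dose matrix) is given: first quartile when negative (synergy) and third quartile when positive (antagonism).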

CCCCCCCCCC(=O)N[C@@H](Cc1c[nH]c2ccccc12)C(=O)N[C@H](CC(N)=O)C(=O)N[C@@H](CC(=O)O)C(=O)N[C@@H]1C(=O)NCC(=O)N[C@@H](CCCN)C(=O)N[C@@H](CC(=O)O)C(=O)N[C@H](C)C(=O)N[C@@H](CC(=O)O)C(=O)NCC(=O)N[C@H](CO)C(=O)N[C@@H]([C@H](C)CC(=O)O)C(=O)N[C@@H](CC(=O)c2ccccc2N)C(=O)O[C@@H]1C [Daptomycin] + CN1C2=CC=CC=C2N=C3C1=CC=CC3=O [Pyocyanin]
fitness
Conditions | first compound 0.125 µg/mL | first compound 0.25 µg/mL | first compound 0.5 µg/mL | first compound 1 µg/mL | first compound 2 µg/mL | first compound 4 µg/mL
B. subtilis 168 [1], partner 1.25 µg/mL | 0.868 | 0.89 | 0.846 | – | – | –
B. subtilis 168 [1], partner 2.5 µg/mL | 0.846 | 0.817 | 0.803 | – | – | –
B. subtilis 168 [1], partner 5 µg/mL | 0.718 | 0.755 | 0.679 | – | – | –
S. aureus DSM 20231 [2], partner 1.25 µg/mL | – | – | 0.891 | 0.969 | 0.727 | –
S. aureus DSM 20231 [2], partner 2.5 µg/mL | – | – | 0.936 | 0.974 | 0.737 | –
S. aureus DSM 20231 [2], partner 5 µg/mL | – | – | 0.627 | 0.707 | 0.639 | –
S. aureus Newman [3], partner 1.25 µg/mL | 0.871 | 0.874 | 0.904 | – | – | –
S. aureus Newman [3], partner 2.5 µg/mL | 0.839 | 0.857 | 0.855 | – | – | –
S. pneumoniae D39V [4], partner 0.325 µg/mL | – | – | – | ≥ 1 | ≥ 1 | 0.994
S. pneumoniae D39V [4], partner 0.65 µg/mL | – | – | – | 0.905 | 0.944 | 0.931
S. pneumoniae D39V [4], partner 1.3 µg/mL | – | – | – | 0.615 | 0.604 | 0.582

fitness, one replicate
Conditions | partner 1.25 µg/mL | partner 2.5 µg/mL | partner 5 µg/mL
B. subtilis 168 [1], first compound 1 µg/mL | 0.697 | 0.652 | 0.552
S. aureus DSM 20231 [2], first compound 0.125 µg/mL | 0.798 | 0.814 | 0.577
S. aureus DSM 20231 [2], first compound 0.25 µg/mL | 0.86 | 0.938 | 0.581

Conditions | Bliss interaction score
B. subtilis 168 [5] | -0.0565
S. aureus DSM 20231 [6] | -0.0886
S. aureus Newman [7] | 0.0899
S. pneumoniae D39V [8] | -0.0802

CCCCCCCCCC(=O)N[C@@H](Cc1c[nH]c2ccccc12)C(=O)N[C@H](CC(N)=O)C(=O)N[C@@H](CC(=O)O)C(=O)N[C@@H]1C(=O)NCC(=O)N[C@@H](CCCN)C(=O)N[C@@H](CC(=O)O)C(=O)N[C@H](C)C(=O)N[C@@H](CC(=O)O)C(=O)NCC(=O)N[C@H](CO)C(=O)N[C@@H]([C@H](C)CC(=O)O)C(=O)N[C@@H](CC(=O)c2ccccc2N)C(=O)O[C@@H]1C [Daptomycin] + CN[C@H](CC(C)C)C(=O)N[C@H]1C(=O)N[C@@H](CC(N)=O)C(=O)N[C@H]2C(=O)N[C@H]3C(=O)N[C@H](C(=O)N[C@H](C(=O)O)c4cc(O)cc(O)c4-c4cc3ccc4O)[C@H](O)c3ccc(c(Cl)c3)Oc3cc2cc(c3O[C@@H]2O[C@H](CO)[C@@H](O)[C@H](O)[C@H]2O[C@H]2C[C@](C)(N)[C@H](O)[C@H](C)O2)Oc2ccc(cc2Cl)[C@H]1O [Vancomycin]
fitness, S. aureus DSM 20231 [2], one replicate
Conditions | partner 0.1875 µg/mL | partner 0.375 µg/mL | partner 0.75 µg/mL
first compound 0.125 µg/mL | 0.901 | ≥ 1 | ≥ 1
first compound 0.25 µg/mL | 0.853 | ≥ 1 | ≥ 1

Conditions | fitness
S. aureus DSM 20231 [2], first compound 0.5 µg/mL, partner 0.1875 µg/mL | ≥ 1
S. aureus DSM 20231 [2], first compound 0.5 µg/mL, partner 0.375 µg/mL | ≥ 1
S. aureus DSM 20231 [2], first compound 0.5 µg/mL, partner 0.75 µg/mL | ≥ 1
S. aureus DSM 20231 [2], first compound 1 µg/mL, partner 0.1875 µg/mL | ≥ 1
S. aureus DSM 20231 [2], first compound 1 µg/mL, partner 0.375 µg/mL | ≥ 1
S. aureus DSM 20231 [2], first compound 1 µg/mL, partner 0.75 µg/mL | ≥ 1
S. aureus DSM 20231 [2], first compound 2 µg/mL, partner 0.1875 µg/mL | 0.906
S. aureus DSM 20231 [2], first compound 2 µg/mL, partner 0.375 µg/mL | 0.975
S. aureus DSM 20231 [2], first compound 2 µg/mL, partner 0.75 µg/mL | 0.935
S. aureus Newman [3], first compound 0.125 µg/mL, partner 0.1875 µg/mL | ≥ 1
S. aureus Newman [3], first compound 0.125 µg/mL, partner 0.375 µg/mL | ≥ 1
S. aureus Newman [3], first compound 0.125 µg/mL, partner 0.75 µg/mL | 0.973
S. aureus Newman [3], first compound 0.25 µg/mL, partner 0.1875 µg/mL | ≥ 1
S. aureus Newman [3], first compound 0.25 µg/mL, partner 0.375 µg/mL | 0.998
S. aureus Newman [3], first compound 0.25 µg/mL, partner 0.75 µg/mL | 0.985
S. aureus Newman [3], first compound 0.5 µg/mL, partner 0.1875 µg/mL | 0.988
S. aureus Newman [3], first compound 0.5 µg/mL, partner 0.375 µg/mL | ≥ 1
S. aureus Newman [3], first compound 0.5 µg/mL, partner 0.75 µg/mL | 0.952
S. pneumoniae D39V [4], first compound 1 µg/mL, partner 0.03125 µg/mL | 0.921
S. pneumoniae D39V [4], first compound 1 µg/mL, partner 0.0625 µg/mL | 0.841
S. pneumoniae D39V [4], first compound 1 µg/mL, partner 0.25 µg/mL | 0.116
S. pneumoniae D39V [4], first compound 1 µg/mL, partner 0.5 µg/mL | 0.0905
S. pneumoniae D39V [4], first compound 2 µg/mL, partner 0.03125 µg/mL | 0.915
S. pneumoniae D39V [4], first compound 2 µg/mL, partner 0.0625 µg/mL | 0.885
S. pneumoniae D39V [4], first compound 2 µg/mL, partner 0.125 µg/mL | 0.915
S. pneumoniae D39V [4], first compound 2 µg/mL, partner 0.25 µg/mL | 0.103
S. pneumoniae D39V [4], first compound 2 µg/mL, partner 0.5 µg/mL | 0.094
S. pneumoniae D39V [4], first compound 4 µg/mL, partner 0.03125 µg/mL | 0.938
S. pneumoniae D39V [4], first compound 4 µg/mL, partner 0.0625 µg/mL | 0.898
S. pneumoniae D39V [4], first compound 4 µg/mL, partner 0.125 µg/mL | 0.904
S. pneumoniae D39V [4], first compound 4 µg/mL, partner 0.25 µg/mL | 0.184
S. pneumoniae D39V [4], first compound 4 µg/mL, partner 0.5 µg/mL | 0.0719

Conditions | Bliss interaction score
B. subtilis 168 [5] | 0.0914
S. aureus DSM 20231 [6] | 0.05
S. aureus Newman [7] | 0.0383
S. pneumoniae D39V [8] | 0.0724

CCCCCCCCCC(=O)N[C@@H](Cc1c[nH]c2ccccc12)C(=O)N[C@H](CC(N)=O)C(=O)N[C@@H](CC(=O)O)C(=O)N[C@@H]1C(=O)NCC(=O)N[C@@H](CCCN)C(=O)N[C@@H](CC(=O)O)C(=O)N[C@H](C)C(=O)N[C@@H](CC(=O)O)C(=O)NCC(=O)N[C@H](CO)C(=O)N[C@@H]([C@H](C)CC(=O)O)C(=O)N[C@@H](CC(=O)c2ccccc2N)C(=O)O[C@@H]1C [Daptomycin] + Cn1nnc(-c2ccc(-c3ccc(N4C[C@H](CO)OC4=O)cc3F)cn2)n1 [Tedizolid]
fitness, S. aureus DSM 20231 [2], one replicate
Conditions | partner 0.0625 µg/mL | partner 0.125 µg/mL | partner 0.25 µg/mL
first compound 0.125 µg/mL | 0.918 | 0.765 | 0.354
first compound 0.25 µg/mL | 0.894 | 0.762 | 0.375

fitness
Conditions | partner 0.03125 µg/mL | partner 0.0625 µg/mL | partner 0.125 µg/mL | partner 0.25 µg/mL | partner 0.5 µg/mL
S. aureus DSM 20231 [2], first compound 0.5 µg/mL | – | 0.896 | 0.832 | 0.322 | –
S. aureus DSM 20231 [2], first compound 1 µg/mL | – | 0.907 | 0.78 | 0.293 | –
S. aureus DSM 20231 [2], first compound 2 µg/mL | – | 0.896 | 0.677 | 0.389 | –
S. aureus Newman [3], first compound 0.125 µg/mL | – | 0.977 | 0.914 | – | –
S. aureus Newman [3], first compound 0.25 µg/mL | – | 0.97 | 0.879 | – | –
S. aureus Newman [3], first compound 0.5 µg/mL | – | 0.964 | 0.914 | – | –
S. pneumoniae D39V [4], first compound 1 µg/mL | 0.916 | 0.942 | 0.619 | 0.23 | 0.0913
S. pneumoniae D39V [4], first compound 2 µg/mL | 0.917 | 0.905 | 0.625 | 0.245 | 0.0924
S. pneumoniae D39V [4], first compound 4 µg/mL | 0.93 | 0.966 | 0.643 | 0.256 | 0.0875

Conditions | Bliss interaction score
B. subtilis 168 [5] | 0.0472
S. aureus DSM 20231 [6] | 0.0665
S. aureus Newman [7] | 0.0584
S. pneumoniae D39V [8] | -0.141

Source: the supplement of paper PMC10627819
